Series [1] is described as follows: Lipophilicity determination by RP-HPLC (capacity factor k / log k). To be noted: C18 column, isocratic MeOH 55.0% / H2O 45.0%. The format is physicochemical. From the text:
A Waters Alliance 2695 XE HPLC separation module and Waters Photodiode Array Detector 2996 (Waters Corp., Milford, MA, USA) were used. A Symmetry® C18 5 μm, 4.6 × 250 mm, Part No. WAT054275, (Waters Corp., Milford, MA, USA) chromatographic column was used. The HPLC separation process was monitored by Millennium32® Chromatography Manager Software, Waters 2004 (Waters Corp., Milford, MA, USA). A mixture of MeOH p.a. (55.0%) and H2O-HPLC– Mili-Q Grade (45.0%) was used as a mobile phase. The total flow of the column was 0.9 mL/min, injection 30 μL, column temperature 30 °C and sample temperature 10 °C. The detection wavelength 210 nm was chosen. The KI methanolic solution was used for the dead time (tD) determination. Retention times (tR) were measured in minutes.
The capacity factors k were calculated using the Millennium32® Chromatography Manager Software according to formula k = (tR - tD)/tD, where tR is the retention time of the solute, whereas tD denotes the dead time obtained via an unretained analyte. Log k, calculated from the capacity factor k, is used as the lipophilicity index converted to log P scale.

Series [2] relates to photosynthetic electron transport (PET) in spinach chloroplasts. The series is described as follows: Inhibition of photosynthetic electron transport (PET) in spinach chloroplasts, DCPIP photoreduction. It counts as biochemical, Spinacia oleracea L. To be noted: DCPIP as electron acceptor, phosphate buffer pH 7.2, read-out: PET reduction IC50. Here is the method:
Chloroplasts were prepared from spinach (Spinacia oleracea L.) according to Masarovicova and Kralova. The inhibition of photosynthetic electron transport (PET) in spinach chloroplasts was determined spectrophotometrically (Genesys 6, Thermo Scientific, USA) using an artificial electron acceptor 2,6-dichlorophenol-indophenol (DCIPP) according to Kralova et al. and the rate of photosynthetic electron transport was monitored as a photoreduction of DCPIP. The measurements were carried out in phosphate buffer (0.02 mol/L, pH 7.2) containing sucrose (0.4 mol/L), MgCl2 (0.005 mol/L) and NaCl (0.015 mol/L). The chlorophyll content was 30 mg/L in these experiments and the samples were irradiated (~100 W/m^2) from 10 cm distance with a halogen lamp (250 W) using a 4 cm water filter to prevent warming of the samples (suspension temperature 22 °C). The studied compounds were dissolved in DMSO due to their limited water solubility. […] The inhibitory efficiency of the studied compounds was expressed by IC50 values, i.e., by molar concentration of the compounds causing 50% decrease in the oxygen evolution rate relative to the untreated control.

Series [3] has as its system Candida albicans ATCC 44859. The series is described as follows: In vitro antifungal broth microdilution test. It counts as cell-based. To be noted: 35 °C, RPMI 1640 pH 7.0, CLSI M27-A2 (IC80 value); for MIC: Candida albicans, ATCC44859.
The subject of series [4] is Candida tropicalis 156. Put plainly: In vitro antifungal broth microdilution test. The format is cell-based. To be noted: 35 °C, RPMI 1640 pH 7.0, CLSI M27-A2 (IC80 value); for MIC: Candida tropicalis, 156. Background: Dilution methods test growth across graded concentrations, often in twofold steps.
Series [5] deals with Candida krusei ATCC 6258. The series is described as follows: In vitro antifungal broth microdilution test. It counts as cell-based. To be noted: 35 °C, RPMI 1640 pH 7.0, CLSI M27-A2 (IC80 value); for MIC: Pichia kudriavzevii, ATCC6258.
Series [6] concerns Candida glabrata 20/I. Put plainly: In vitro antifungal broth microdilution test. It counts as cell-based. Conditions: 35 °C, RPMI 1640 pH 7.0, CLSI M27-A2 (IC80 value); for MIC: Nakaseomyces glabratus, 20/I.
The subject of series [7] is Trichosporon beigelii 1188. The series is described as follows: In vitro antifungal broth microdilution test. It counts as cell-based. Here is the method:
Fluconazole (FLU) was used as the standard of a clinically used antimycotic drug. The procedure was performed with twofold dilution of the compounds in RPMI 1640 (Sevapharma a.s., Prague, Czech Republic) buffered to pH 7.0 with 0.165 mol of 3-morpholino-propane-1-sulfonic acid (MOPS, Sigma, Germany). The final concentrations of the compounds ranged from 500 to 0.975 μmol/L. Drug–free controls were included. The MIC determination was performed according to the CLSI (formerly NCCLS) reference protocol M27-A2 for yeasts (IC80 value) and M38-A for moulds (IC50 value). […] The values of MICs were determined after 24 and 48 h of static incubation at 35 °C. For T. mentagrophytes, the final MICs were determined after 72 and 120 h of incubation.

Series [8] deals with Aspergillus fumigatus 231. The series is described as follows: In vitro antifungal broth microdilution test. The format is cell-based. Conditions: 35 °C, RPMI 1640 pH 7.0, CLSI M38-A (IC50 value); for MIC: Aspergillus fumigatus, 231.
Series [9] deals with Absidia corymbifera 272. The series is described as follows: In vitro antifungal broth microdilution test. The format is cell-based. Conditions: 35 °C, RPMI 1640 pH 7.0, CLSI M38-A (IC50 value); for MIC: Lichtheimia corymbifera, 272.
For series [10], the system named is Trichophyton mentagrophytes 445. The series is described as follows: In vitro antifungal broth microdilution test. The format is cell-based.
The mark [11] stands for this setting: Trichosporon beigelii, 1188, 24h, 35 °C, RPMI 1640 pH 7.0, CLSI M27-A2 (IC80 value), read-out: MIC TB.
The mark [12] stands for this setting: Trichosporon beigelii, 1188, 48h, 35 °C, RPMI 1640 pH 7.0, CLSI M27-A2 (IC80 value), read-out: MIC TB.
[13] abbreviates: Trichophyton mentagrophytes, 445, 120 h, pH 7.
Setting [14] is: Trichophyton mentagrophytes, 445, 72h, RPMI 1640 pH 7.0, CLSI M38-A (IC50 value).

≈ marks a conversion by molar mass, not a printed value. Where two headings read alike, the source gives them in different places. Where only a bound is given, the exact number is not on record here.

In [1], `O=S(=O)(NCCCCc1ccccc1)c1ccc(O)c2ncccc12` [Compound 7, 8-Hydroxyquinoline-5-sulfonic acid (4-phenylbutyl)amide] showed a log k of 0.3902. Also, the IC50 in [2] amounted to 616 µM. Also, the MIC in series [3] (24h), in series [3] (48h), in [4] (24h), in [4] (48h), in [5] (24h) and in series [5] (48h) was greater than 125 µM throughout. In addition, the MIC in [6] (24h), in series [6] (48h), in series [7] (setting [11]), in series [7] (setting [12]), in [8] (24h) and in series [8] (48h) was greater than 125 µM throughout. For the same compound, the minimal inhibitory concentration (MIC) in series [9] (24h), in series [9] (48h), in [10] (setting [13]) and in [10] (setting [14]) was greater than 125 µM in each case.

Consider `CC(=O)Nc1ccc2cccc(OC(C)=O)c2n1` [Compound 8, 2-Acetylaminoquinolin-8-yl acetate], for which, in [1], the log k is 0.3583. Also, the IC50 in [2] was determined as 306 µM. In addition, the MIC in series [3] (24h) was found to be 15.6 µM; in [3] (48h), 62.5 µM; in series [4] (24h), 31.2 µM; in series [4] (48h) it was 31.2 µM; in series [5] (24h), 62.5 µM; in [5] (48h), 62.5 µM. In addition, the MIC worked out at 31.2 µM in [6] (24h); 62.5 µM in series [6] (48h); 62.5 µM in [7] (setting [11]); 125 µM in [7] (setting [12]); 62.5 µM in [8] (24h); 62.5 µM in series [8] (48h). Also, the MIC in [9] (24h), in series [9] (48h), in series [10] (setting [13]) and in series [10] (setting [14]) was 62.5 µM throughout.

For the compound `O=S(=O)(NCCc1ccccc1)c1ccc(O)c2ncccc12` [Compound 6, 8-Hydroxyquinoline-5-sulfonic acid (2-phenylethyl)amide], in series [1], the log k is listed as 0.3349. Also, the IC50 in series [2] was found to be 304 µM. Besides, the minimum inhibitory concentration (MIC) in series [3] (24h), in [3] (48h), in series [4] (24h), in series [4] (48h), in series [5] (24h) and in [5] (48h) was 125 µM (≈ 41 µg/mL) throughout. The MIC in [6] (24h), in series [6] (48h), in [7] (setting [11]), in [7] (setting [12]), in series [8] (24h) and in [8] (48h) was 125 µM (≈ 41 µg/mL) in each case. The MIC in [9] (24h), in series [9] (48h), in series [10] (setting [13]) and in series [10] (setting [14]) was 125 µM (≈ 41 µg/mL) in each case.

In series [1], “8-Hydroxyquinoline-5-sulfonic acid isobutylamide [Compound 5]” gave a log k of 0.3373. For the same compound, the IC50 in series [2] was 54.4 µM. Also, the “MIC CA” value in [3] (24h) is 125 µM; in series [3] (48h) it was 250 µM. Further, the “MIC CT” value in series [4] (24h) and in series [4] (48h) was 250 µM in each case. The “MIC CK” value in series [5] (24h) and in series [5] (48h) was 250 µM in each case. Also, the “MIC CG” value in series [6] (24h) is 125 µM; in series [6] (48h) it was 250 µM. The “MIC TB” value in series [7] (24h, 35 °C, RPMI 1640 pH 7.0, CLSI M27-A2 (IC80 value)) came to 250 µM; in series [7] (48h, 35 °C, RPMI 1640 pH 7.0, CLSI M27-A2 (IC80 value)), 500 µM. In addition, the “MIC AF” value in [8] (24h) and in series [8] (48h) was 250 µM throughout. The “MIC AC” value in series [9] (24h) and in series [9] (48h) was 125 µM each time. Besides, the “MIC TM” value in [10] (72h, RPMI 1640 pH 7.0, CLSI M38-A (IC50 value)) worked out at 62.50 µM; in series [10] (120h, RPMI 1640 pH 7.0, CLSI M38-A (IC50 value)), 125 µM.

Turning to `O=S(=O)(O)c1cc(Br)c(O)c2ncccc12` [Compound 3, 7-Bromo-8-hydroxyquinoline-5-sulfonic acid], the log k in [1] was 0.3786. The IC50 in [2] is 33.5 µM. Moreover, the MIC in series [3] (24h) was found to be 0.77 µM (≈ 0.234 µg/mL); in series [3] (48h), 1.95 µM (≈ 0.593 µg/mL); in [4] (24h), 1.95 µM (≈ 0.593 µg/mL); in series [4] (48h), 3.9 µM (≈ 1.19 µg/mL); in series [5] (24h), 3.9 µM (≈ 1.19 µg/mL); in series [5] (48h) it was 3.9 µM (≈ 1.19 µg/mL). The MIC was 1.95 µM (≈ 0.593 µg/mL) in series [6] (24h); 3.9 µM (≈ 1.19 µg/mL) in series [6] (48h); 3.9 µM (≈ 1.19 µg/mL) in [7] (Trichosporon beigelii, 1188, 24 h, pH 7, read-out: MIC TB); 3.9 µM (≈ 1.19 µg/mL) in series [7] (setting [12]); 0.77 µM (≈ 0.234 µg/mL) in series [8] (24h); 1.95 µM (≈ 0.593 µg/mL) in series [8] (48h). The MIC was 7.8 µM (≈ 2.37 µg/mL) in series [9] (24h), 7.8 µM (≈ 2.37 µg/mL) in series [9] (48h), 1.95 µM (≈ 0.593 µg/mL) in [10] (setting [13]) and 1.95 µM (≈ 0.593 µg/mL) in series [10] (setting [14]).

`O=[N+]([O-])c1ccc(O)c2ncccc12` [Compound 1, 5-Nitroquinolin-8-ol] returned a log k in [1] of 0.5695. Besides, the IC50 in [2] was 78 µM. The MIC in series [3] (24h), in [3] (48h), in series [4] (24h), in series [4] (48h), in series [5] (24h) and in series [5] (48h) was greater than 500 µM in each case. In addition, the MIC in series [6] (24h), in [6] (48h), in [7] (setting [11]), in series [7] (setting [12]), in [8] (24h) and in [8] (48h) was greater than 500 µM throughout. For the same compound, the MIC in series [9] (24h), in series [9] (48h), in series [10] (setting [13]) and in [10] (setting [14]) was greater than 500 µM throughout.

A word on the IC50: it is the point on the concentration scale where inhibition reaches its midpoint. By MIC is commonly meant the least concentration at which growth counts as inhibited.

Values taken from paper PMC6256987, “Investigating the Activity Spectrum for Ring-Substituted 8-Hydroxyquinolines” (Molecules, 2010).
